Test results published in patent publication US5128376A, “Method for percutaneously administering physiologically active agents using an adjuvant a solvent and a diol moderator” (priority 1990, dated 1992).
Counter-ions that a name gives are not always drawn. Like-named read-outs stand apart in the source and are kept apart here. One block for each molecule: values may come before it.

Key:
[1] = In vitro skin penetration study with rat skin diffusion cell technique (active agent flux, 8 hours); details: 25 mg in 1 ml
Text: Rat full thickness skins were used in the diffusion cell method of Michaels, AlChE Journal, 21 [5], 985-996, 1975. The rat skin was mounted in the diffusion cell in a vertical position between the upstream and the downstream compartments; the exposed area of the skin approximated 4.15 cm^2.
The skin was excised from the shaved abdominal site of male albino rats weighing 150~300 g, and washed with normal saline solution after the subcutaneous fat was carefully removed with scissors.
The active agent/PAEC solution of known concentration was added to the upper compartment of the cell, which was exposed to the epithelial side of the skin and a normal saline solution was placed in the lower compartment.
The penetration rate was studied in a thermostated bath at 30° C. […]
The flux of the active agent is given in the terms of μg/cm^2 /8 hours. 25 Volume percent component A with respect to component A and component B volume with or without diols and/or triols was used in the composition along with 2.5 weight percent of the active agent. For purposes of comparison, in one instance the result for an adjuvant alone with a diol and/or triol is given.
1,2-propanediol was used as a diol moderator. […]
In the following Examples 6, 8, 9, 11 and 12, in vitro transdermal penetration was again analyzed followed the method of Michaels, AIChE Journal, 21, [5], pp. 985-996 (1975), according to the earlier described procedure. The sample volume was 1 ml unless otherwise indicated and flux of the active agent is given in μg/cm^2 /8 hours. Al percents are volume percents based on the total volume of the system unless otherwise indicated.
25 mg of the NSAID, Indomethacin, Diclofenac sodium or Ibuprofen in 1 ml of various systems were used. […]

in vivo = details: rhesus monkey, topical or ocular
Description: Male rhesus monkeys weighting 10-14 Kg can be used as the subject. An appropriate area of the monkey's chest is shaved 24 hours before drug application.
Drug formulations comprising the PAEC are applied to a certain area of the chest. The monkey is restrained in a chair to prevent it from touching its chest.
Blood samples are taken at appropriate intervals after the application. The heparinized blood is centrifuged, and the plasma removed and stored at -20° C. until analyzed.
This example show in vivo plasma metoclopramide.HCl levels with a topical gel formulation.
200 mg of metoclopramide.HCl was dissolved in 4 ml of 10% C12 OH in a 1:1 volume mixture of MP/1,2-propanediol. To this solution was added 160 mg of Klucel (hydroxypropylcellulose type HF; Hercules Inc.) and the same stirred thoroughly to obtain a uniform gel. 1.0 ml of the gel was applied to 49 cm^2 of the chest area of the rhesus monkey; the applied area was left open to the air during the experiment.
In Examples 7 and 10, the in vivo Rhesus monkey test earlier described was followed except for modifying as described in Example 7.
49 cm^2 of a polyester non-woven cloth (230 mg) impregnated with 1 ml of 25% C12 OH in a 2:1 volume mixture of MP/1,2-propanediol containing 200 mg of Indomethacin was applied to the upper back of a rhesus monkey; the applied area was occluded with Saran® film.
The plasma level of Indomethacine was analyzed by conventional HPLC.
The in vivo procedure of Example 7 was duplicated except for using propranolol as the active agent in place of the NSAID used, e.g., Indomethacin.

Relative Flux ([1]; Ibuprofen, 25% C12 OH in N-methyl piperidone (reference)): 1.0
Relative Flux ([1]; Ibuprofen, 25% C12 OH in a 2:1 volume mixture of N-methyl piperidone/1,2-propanediol, relative to 25% C12 OH in N-methyl piperidone): 0.48
SMILES: CC(C)Cc1ccc(C(C)C(=O)O)cc1 (centres unmarked) [Ibuprofen]

concentration at 1 h (in vivo; in vivo): 75 ng/mL
concentration at 2 h (in vivo; in vivo): 146 ng/mL
concentration at 3 h (in vivo; in vivo): 178 ng/mL
concentration at 5 h (in vivo; in vivo): 121 ng/mL
concentration at 7 h (in vivo; in vivo): 93 ng/mL
SMILES: CCN(CC)CCNC(=O)c1cc(Cl)c(N)cc1OC [metoclopramide.HCl]

Relative Flux ([1]; Indomethacin, 25% C12 OH in MP (reference)): 1.0
Relative Flux ([1]; Indomethacin, 25% C12 OH in a 2:1 volume mixture of MP/1,2-propanediol, relative to 25% C12 OH in MP): 0.73
concentration at 1 h (in vivo; in vivo, 1 hour after application, 200 mg in 1 ml 25% C12 OH in 2:1 MP/1,2-propanediol, 49 cm^2 cloth, upper back, occluded, read-out: Indomethacin plasma level): 619 ng/mL
concentration at 3 h (in vivo; in vivo, 3 hours after application, 200 mg in 1 ml 25% C12 OH in 2:1 MP/1,2-propanediol, 49 cm^2 cloth, upper back, occluded, read-out: Indomethacin plasma level): 452 ng/mL
concentration at 5 h (in vivo; in vivo, 5 hours after application, 200 mg in 1 ml 25% C12 OH in 2:1 MP/1,2-propanediol, 49 cm^2 cloth, upper back, occluded, read-out: Indomethacin plasma level): 388 ng/mL
concentration at 7 h (in vivo; in vivo, 7 hours after application, 200 mg in 1 ml 25% C12 OH in 2:1 MP/1,2-propanediol, 49 cm^2 cloth, upper back, occluded, read-out: Indomethacin plasma level): 429 ng/mL
SMILES: COc1ccc2c(c1)c(CC(=O)O)c(C)n2C(=O)c1ccc(Cl)cc1 [Indomethacin]

concentration at 1 h (in vivo; plasma, 200 mg, 1 hour after application, procedure of Example 7 (25% C12 OH in 2:1 MP/1,2-propanediol, 49 cm^2, upper back, occluded), read-out: Propranolol plasma level): 30 ng/mL
concentration at 3 h (in vivo; plasma, 200 mg, 3 hours after application, procedure of Example 7 (25% C12 OH in 2:1 MP/1,2-propanediol, 49 cm^2, upper back, occluded), read-out: Propranolol plasma level): 115 ng/mL
concentration at 5 h (in vivo; plasma, 200 mg, 5 hours after application, procedure of Example 7 (25% C12 OH in 2:1 MP/1,2-propanediol, 49 cm^2, upper back, occluded), read-out: Propranolol plasma level): 130 ng/mL
concentration at 7 h (in vivo; plasma, 200 mg, 7 hours after application, procedure of Example 7 (25% C12 OH in 2:1 MP/1,2-propanediol, 49 cm^2, upper back, occluded), read-out: Propranolol plasma level): 90 ng/mL
SMILES: CC(C)NCC(O)COc1cccc2ccccc12 (centres unmarked) [propranolol]
